Measured values published in patent US5919765A, “Inhibitors of factor XA” (COR Therapeutics, Inc., priority 1995, dated 1999).
Numbered stars: 1 amine (or outer) side, 2 acyl side, 3 side chain; on linkers, the order of the positions; unused ones are H or OH. Square brackets hold non-standard residues; d marks the D form. Peptide text beside a SMILES is read from it. * marks the point of attachment. dCit = NC(=O)NCCC[C@@H](N)C(=O)O; Suc = O=C(CCC(=O)[*:2])[*:1]; Boc = CC(C)(C)OC(=O)*; Aib = CC(C)(N)C(=O)O

Key:
thrombin = molecular target: T1, thrombin (Homo sapiens, UniProt P00734); experiment: Thrombin amidolytic assay (chromogenic substrate Chromozym TH); type: biochemical; details: read-out: Inhibitory Activity (IC50) Thrombin
T1 construct: The formation of thrombin is the result of the proteolytic cleavage of its precursor prothrombin

Rabbits [1] = experiment: Rabbit deep vein thrombosis model; type: in vivo
Description: Haemost. […] Rabbits were anesthetized with I.M. injections of Ketamine, Xylazine, and Acepromazine cocktail.

Rabbits [2] = experiment: Cuticle Bleeding Time model in rabbits; type: in vivo, rabbit; details: 1500 μg/kg+14.85 μg/kg/min
Procedure: In an ancillary study, a Cuticle Bleeding Time model was used to evaluate the effect of test compounds on bleeding time (BT) measurements in rabbits. The standardized protocol involved anesthesia and catheterization of rabbits as previously described in this Example 43. To measure BT, a toe nail was cut 5 mm from the base of the cuticle with a canine nail trimming device. Time until cessation of bleeding was recorded by wicking the blood on to BT blotting paper in 30 second intervals. Test compound was administered as a bolus followed by infusion regimen. Two BT measurements were obtained prior to administration of test compound and three BT measurements accomplished serially after initiation of steady state infusion of test compound. BT measurements were allowed to continue for up to 30 minutes at which time it was stopped with application of silver nitrate. Blood samples were obtained just prior to all BT measurements and processed for measurement of hematological and coagulation parameters.

[3] = rabbit venous thrombosis model, bolus + infusion

SMILES | IC50 (thrombin) [µM] | also measured
CC(C)(C)OC(=O)N[C@H](CCCNC(=N)N)C(=O)NC(C)(C)C(=O)N[C@H](C=O)CCCNC(=N)N [Boc--D--Arg--Aib--Arg--H, Boc-D-Arg-Aib-Arg--H] (Boc-[dR]-[Aib]-Arg-aldehyde) | > 500 | –
CC(C)(C)OC(=O)N[C@H](CCCN=C(N)N)C(=O)NCC(=O)N[C@H](C=O)CCCN=C(N)N [Boc--D--Arg--Gly--Arg--H, Boc-D-Arg-Gly-Arg--H] (Boc-[dR]-Gly-Arg-aldehyde) | – | effects on hematological parameters as compared to saline controls (Rabbits [1]; [3]): no significant effects; changes in hematological parameters from pre to post administration (Rabbits [2]): no significant changes
CC(C)(C)OC(=O)N[C@H](CCCNC(=N)N)C(=O)NCC(=O)N[C@H](C=O)CCCNC(=N)N [Boc--D--Arg--Gly--Arg--H, Boc-D-Arg-Gly-Arg--H] (Boc-[dR]-Gly-Arg-aldehyde) | – | % Inhibition of Thrombosis (Rabbits [1]; 200 + 1.98 μg/kg + μg/kg/min): 8.4%; % Inhibition of Thrombosis (Rabbits [1]; 600 + 5.94 μg/kg + μg/kg/min): -6.6%; antithrombotic efficacy (Rabbits [1]; [3]): demonstrated antithrombotic efficacy at the higher doses evaluated
CC(C)(C)OC(=O)N[C@H](CCCNC(N)=O)C(=O)NCC(=O)N[C@H](C=O)CCCNC(=N)N [Boc--D--Cit--Gly--Arg--H, Boc-D-Cit-Gly-Arg--H] (Boc-[dCit]-Gly-Arg-aldehyde) | > 100 | –
CC(C)(C)OC(=O)N[C@H](CCCCN)C(=O)NCC(=O)N[C@H](C=O)CCCNC(=N)N [Boc--D--Lys--Gly--Arg--H, Boc-D-Lys-Gly-Arg--H] (Boc-[dK]-Gly-Arg-aldehyde) | > 100 | –
CCOC(=O)N[C@H](CCCNC(=N)N)C(=O)NCC(=O)N[C@H](C=O)CCCNC(=N)N [EtOCO--D--Arg--Gly--Arg--H, EtO2 C-D-Arg-Gly-Arg--H] | > 100 | –
N=C(N)NCCC[C@@H](C=O)NC(=O)CNC(=O)[C@@H](CCCNC(=N)N)NC(=O)CCC(=O)O [HOOC(CH2)2 CO--D--Arg--Gly--Arg--H, Succinoyl-D-Arg-Gly-Arg--H] (Suc-[dR]-Gly-Arg-aldehyde) | > 100 | –
N=C(N)NCCC[C@@H](C=O)NC(=O)CNC(=O)[C@@H](CCCNC(=N)N)NC(=O)CC(=O)O [HOOCCH2 CO--D--Arg--Gly--Arg--H, Malonoyl-D-Arg-Gly-Arg--H] | > 100 | –
